In ChEMBL document CHEMBL6153170 (J Med Chem, 2025):
pIC50: −log10 of the molar value. Values after ≈ are worked out from the molar mass of the structure shown. Active and inactive are the calls of the source. The calls are words filed in the database; no cut-off is given here.

Columns and labels:
[1] = Aqueous solubility of compound incubated for 24 hrs by miniaturized shake flask based HPLC analysis; format: physicochemical; conditions: buffer
B16-F10 [2] = experiment: cells; conditions: Mus musculus, B16-F10, 48 h
B16-F10 [3] = experiment: Antitumor activity against mouse B16-F10 cells implanted in C57BL/6 mouse model assessed as tumor growth inhibition at 20 mg/kg/day, ip administered for 14 days relative to control; format: functional; conditions: B16-F10, 336 h, time 14 day, read-out: TGI
MCF7 = experiment: cells; conditions: Homo sapiens, MCF7, 48 h
B16-F10 [4] = experiment: Downregulation of PD-L1 expression level in mouse B16-F10 cells at 0.1 to 2 uM incubated for 24 hrs by Western blot analysis; format: functional, cell-based; conditions: dose 0.1-2 µM
B16-F10 [5] = experiment: Antitumor immunity activity against mouse B16-F10 cells implanted in C57BL/6 mouse model assessed as CD3+ CD4+ T cell percentage in tumor at 20 mg/kg/day, ip administered for 14 days by flow cytometric analysis (reference value: 0.095 %); format: functional; conditions: time 14 day
HepG2 = experiment: cells; conditions: Homo sapiens, HepG2, 48 h
B16-F10 [6] = experiment: Effect on HDAC6 protein level in mouse B16-F10 cells at 0.1 to 2 uM incubated for 12 hrs by Western blot analysis; format: functional, cell-based; conditions: dose 0.1-2 µM
[7] = In vivo inhibition of PD-L1 in C57BL/6 mouse model implanted with mouse B16-F10 cells assessed as reduction in PD-L1 protein expression in tumor at 20 mg/kg/day, ip administered for 14 days by Western blot analysis relative to control; format: functional; conditions: C57BL/6, B16-F10, 336 h, time 14 day
[8] = target: T1, Protein deacetylase HDAC6 (Mus musculus) (UniProt Q9Z2V5); experiment: In vivo inhibition of HDAC6 in C57BL/6 mouse model implanted with mouse B16-F10 cells assessed as increase in acetylated alpha-tubulin protein level in tumor at 20 mg/kg/day, ip administered for 14 days by Western blot analysis; format: functional, organism-based; conditions: time 14.0 day
T1 sequence (whole entry): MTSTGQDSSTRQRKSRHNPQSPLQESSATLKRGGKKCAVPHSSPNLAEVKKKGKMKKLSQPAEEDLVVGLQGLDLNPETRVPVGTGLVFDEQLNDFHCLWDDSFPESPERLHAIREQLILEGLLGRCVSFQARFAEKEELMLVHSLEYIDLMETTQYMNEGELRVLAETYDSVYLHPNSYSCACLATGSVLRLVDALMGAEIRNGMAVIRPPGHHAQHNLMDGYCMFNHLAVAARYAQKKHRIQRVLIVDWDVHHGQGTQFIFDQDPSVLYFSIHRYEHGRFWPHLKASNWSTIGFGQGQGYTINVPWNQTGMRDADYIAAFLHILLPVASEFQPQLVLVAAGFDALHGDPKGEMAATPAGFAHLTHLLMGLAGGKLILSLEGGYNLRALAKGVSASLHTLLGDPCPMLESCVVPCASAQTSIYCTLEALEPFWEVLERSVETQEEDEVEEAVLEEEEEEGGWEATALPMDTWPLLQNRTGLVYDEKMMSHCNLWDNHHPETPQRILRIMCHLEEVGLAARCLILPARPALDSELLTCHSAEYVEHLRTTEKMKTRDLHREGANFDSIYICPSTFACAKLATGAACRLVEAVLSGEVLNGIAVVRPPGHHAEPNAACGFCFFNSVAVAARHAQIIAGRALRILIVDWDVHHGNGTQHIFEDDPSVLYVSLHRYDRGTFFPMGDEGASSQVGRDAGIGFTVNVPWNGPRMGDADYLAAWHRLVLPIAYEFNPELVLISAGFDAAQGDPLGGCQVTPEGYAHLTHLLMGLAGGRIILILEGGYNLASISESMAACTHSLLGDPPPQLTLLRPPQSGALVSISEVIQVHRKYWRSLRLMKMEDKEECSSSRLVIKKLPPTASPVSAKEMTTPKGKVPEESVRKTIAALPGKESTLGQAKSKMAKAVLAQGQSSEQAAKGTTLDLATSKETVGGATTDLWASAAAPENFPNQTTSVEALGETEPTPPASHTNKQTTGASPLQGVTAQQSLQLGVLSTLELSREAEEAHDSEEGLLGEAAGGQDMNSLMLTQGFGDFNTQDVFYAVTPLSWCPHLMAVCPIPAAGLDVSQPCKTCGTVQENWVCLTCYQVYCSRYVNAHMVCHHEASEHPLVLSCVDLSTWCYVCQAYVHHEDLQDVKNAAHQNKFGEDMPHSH

B16-F10 [9] = experiment: Antitumor immunity activity against mouse B16-F10 cells implanted in C57BL/6 mouse model assessed as CD3+ CD8+ T cell percentage in tumor at 20 mg/kg/day, ip administered for 14 days by flow cytometric analysis (reference value: 0.52 %); format: functional; conditions: time 14 day
B16-F10 [10] = experiment: Effect on STAT3 expression level in mouse B16-F10 cells at 0.1 to 2 uM incubated for 24 hrs by Western blot analysis; format: functional, cell-based; conditions: dose 0.1-2 µM
B16-F10 [11] = experiment: Downregulation of p-STAT3 expression level in mouse B16-F10 cells at 0.1 to 2 uM incubated for 24 hrs by Western blot analysis; format: functional, cell-based; conditions: dose 0.1-2 µM
Jurkat [12] = experiment: Effect on HDAC6 protein level in human Jurkat T cells at 0.1 to 2 uM incubated for 12 hrs by Western blot analysis; format: functional, cell-based; conditions: dose 0.1-2 µM
[13] = target: T1, Protein deacetylase HDAC6 (Mus musculus); experiment: Inhibition of HDAC6 in mouse B16-F10 cells assessed as increase in acetylated alpha-tubulin level incubated for 12 hrs by Western blot analysis; format: cell-based; conditions: dose 0.1-2 µM
Jurkat [14] = experiment: cells; conditions: Homo sapiens, 72 h
Histone deacetylase 8 = target: T2, Histone deacetylase 8 (Homo sapiens, UniProt Q9BY41); experiment: Inhibition of C-terminal His-tagged recombinant full length human HDAC8 extracted from baculovirus infected Sf9 insect cells preincubated for 5 mins followed by substrate addition and measured after 30 mins by fluorescence microplate reader analysis
T2 sequence (Q9BY41 whole entry): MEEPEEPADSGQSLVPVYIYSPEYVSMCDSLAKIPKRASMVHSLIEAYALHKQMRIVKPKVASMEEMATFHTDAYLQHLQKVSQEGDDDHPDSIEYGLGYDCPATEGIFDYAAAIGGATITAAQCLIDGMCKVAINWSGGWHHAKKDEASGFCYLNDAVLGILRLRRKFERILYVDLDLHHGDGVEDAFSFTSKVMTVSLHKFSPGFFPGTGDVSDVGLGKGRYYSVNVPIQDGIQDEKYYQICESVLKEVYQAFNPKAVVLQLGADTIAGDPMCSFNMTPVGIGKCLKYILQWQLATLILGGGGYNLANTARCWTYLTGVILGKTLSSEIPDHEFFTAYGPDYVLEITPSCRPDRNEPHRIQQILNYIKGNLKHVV

[15] = target: Programmed cell death protein 1/Programmed cell death 1 ligand 1 (Homo sapiens, UniProt Q9NZQ7); experiment: Inhibition of PD-1/PD-L1 (unknown origin) protein-protein interaction by HTRF assay; format: protein-complex assay
Programmed cell death protein 1/Programmed cell death 1 ligand 1, sequence (Q15116 whole entry, the tested form may be a part): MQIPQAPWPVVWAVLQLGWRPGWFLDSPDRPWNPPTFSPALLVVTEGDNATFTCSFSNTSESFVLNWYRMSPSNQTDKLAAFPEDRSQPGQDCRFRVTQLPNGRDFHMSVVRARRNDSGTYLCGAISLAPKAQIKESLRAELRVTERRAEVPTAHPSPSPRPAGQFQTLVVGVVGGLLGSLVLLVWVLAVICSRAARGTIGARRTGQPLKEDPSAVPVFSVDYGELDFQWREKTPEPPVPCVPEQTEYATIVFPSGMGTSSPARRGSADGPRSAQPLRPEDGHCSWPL
Programmed cell death protein 1/Programmed cell death 1 ligand 1, sequence (Q9NZQ7 whole entry, the tested form may be a part): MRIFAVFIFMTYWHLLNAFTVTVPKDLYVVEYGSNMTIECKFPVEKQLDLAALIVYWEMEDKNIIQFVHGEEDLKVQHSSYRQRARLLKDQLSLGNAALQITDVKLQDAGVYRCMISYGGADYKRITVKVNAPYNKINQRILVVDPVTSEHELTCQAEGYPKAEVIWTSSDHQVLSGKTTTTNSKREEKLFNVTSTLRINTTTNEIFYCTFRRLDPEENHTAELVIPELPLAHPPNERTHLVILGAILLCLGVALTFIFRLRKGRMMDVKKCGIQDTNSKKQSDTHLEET

Histone deacetylase 1 = Histone deacetylase 1 (Homo sapiens, UniProt Q13547); experiment: Inhibition of recombinant full-length human HDAC1 (1 to 482 residues) extracted from baculovirus expression system using Ac-Leu-Gly-Lys (Ac)-AMC as substrate preincubated for 5 mins followed by substrate addition and measured after 30 mins by fluorescence microplate reader analysis
Histone deacetylase 1, sequence (Q13547 whole entry, the tested form may be a part): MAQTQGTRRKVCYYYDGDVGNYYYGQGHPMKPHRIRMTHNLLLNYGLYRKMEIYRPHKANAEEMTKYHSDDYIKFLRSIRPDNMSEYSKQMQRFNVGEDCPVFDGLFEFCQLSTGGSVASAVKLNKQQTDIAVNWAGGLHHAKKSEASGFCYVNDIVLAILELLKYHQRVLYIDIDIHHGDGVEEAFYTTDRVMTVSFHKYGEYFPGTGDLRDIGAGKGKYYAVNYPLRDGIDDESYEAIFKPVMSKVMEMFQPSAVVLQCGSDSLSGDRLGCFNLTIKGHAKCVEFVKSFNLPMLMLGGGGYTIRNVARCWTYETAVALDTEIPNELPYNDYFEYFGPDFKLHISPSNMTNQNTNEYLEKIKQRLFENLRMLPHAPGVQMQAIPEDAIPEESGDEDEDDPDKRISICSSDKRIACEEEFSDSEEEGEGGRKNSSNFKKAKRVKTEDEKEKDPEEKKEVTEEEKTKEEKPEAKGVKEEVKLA

Histone deacetylase 7 = target: T3, Histone deacetylase 7 (Homo sapiens, UniProt Q8WUI4); experiment: Inhibition of N-terminal GST-tagged recombinant human HDAC7 (501 to 952 residues) extracted from baculovirus expression system using Ac-Leu-Gly-Lys (Tfa)-AMC as substrate preincubated for 5 mins followed by substrate addition and measured after 30 mins by fluorescence microplate reader analysis
T3 sequence (Q8WUI4 whole entry): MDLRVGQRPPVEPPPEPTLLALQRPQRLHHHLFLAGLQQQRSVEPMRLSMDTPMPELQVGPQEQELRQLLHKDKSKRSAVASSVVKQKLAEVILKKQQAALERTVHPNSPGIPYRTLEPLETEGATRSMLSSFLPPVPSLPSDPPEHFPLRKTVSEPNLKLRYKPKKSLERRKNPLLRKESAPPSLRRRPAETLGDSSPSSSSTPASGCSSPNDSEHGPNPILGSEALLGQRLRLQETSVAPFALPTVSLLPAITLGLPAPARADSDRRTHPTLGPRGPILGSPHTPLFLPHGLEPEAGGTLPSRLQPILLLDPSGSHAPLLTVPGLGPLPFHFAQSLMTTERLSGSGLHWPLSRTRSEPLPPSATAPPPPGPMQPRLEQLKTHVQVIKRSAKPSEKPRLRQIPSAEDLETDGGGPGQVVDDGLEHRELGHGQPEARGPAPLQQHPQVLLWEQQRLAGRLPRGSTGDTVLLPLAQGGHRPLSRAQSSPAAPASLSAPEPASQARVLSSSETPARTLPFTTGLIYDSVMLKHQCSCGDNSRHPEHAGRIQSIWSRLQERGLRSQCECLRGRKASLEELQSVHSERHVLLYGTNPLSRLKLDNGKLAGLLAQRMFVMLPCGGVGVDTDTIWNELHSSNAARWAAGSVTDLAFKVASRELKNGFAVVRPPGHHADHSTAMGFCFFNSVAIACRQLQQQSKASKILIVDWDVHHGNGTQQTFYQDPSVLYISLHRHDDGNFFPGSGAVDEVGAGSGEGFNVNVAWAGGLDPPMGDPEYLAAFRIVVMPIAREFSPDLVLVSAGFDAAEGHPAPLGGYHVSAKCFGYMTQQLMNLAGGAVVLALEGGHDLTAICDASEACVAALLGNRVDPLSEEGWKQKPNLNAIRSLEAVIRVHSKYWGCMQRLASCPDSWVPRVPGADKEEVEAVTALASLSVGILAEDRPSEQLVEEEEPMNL

Jurkat [16] = experiment: Upregulation of acetylated histone H3 protein level in human Jurkat T cells at 0.1 to 2 uM incubated for 12 hrs by Western blot analysis; format: functional, cell-based; conditions: dose 0.1-2 µM
B16-F10 [17] = experiment: Upregulation of acetylated histone H3 protein level in mouse B16-F10 cells at 0.1 to 2 uM incubated for 12 hrs by Western blot analysis; format: functional, cell-based; conditions: dose 0.1-2 µM

| Compound | pIC50 (B16-F10 [2]) | inhibition in vivo at 20 mg/kg/day (B16-F10 [3]) | pIC50 (MCF7) | Activity (B16-F10 [5]) | pIC50 (HepG2) | inhibition in vivo at 20 mg/kg/day [7] | inhibition [8] | Activity (B16-F10 [9]) | pIC50 (Jurkat [14]) | pIC50 (Histone deacetylase 8) | pIC50 [15] | pIC50 (Histone deacetylase 7) | further results |
| --- | --- | --- | --- | --- | --- | --- | --- | --- | --- | --- | --- | --- | --- |
| COc1nc(OCc2cccc(-c3ccccc3)c2C)ccc1CNCCNC(C)=O | – | – | – | – | – | – | – | – | – | – | – | – | solubility thermodynamic at 24 h [1]: 38.3 µg/mL (≈ 91.3 µM) |
| O=C(CCCCCCNC(=O)c1cnc(N(c2ccccc2)c2ccccc2)nc1)NO [RICOLINOSTAT] | < 5.00 | 45.6% | 5.08 | 2.62% | 5.10 | ~30% | Active | 1.04% | 5.17 | – | – | – | Activity (B16-F10 [4]): Active; Activity (B16-F10 [6]): inactive; Activity (B16-F10 [10]): inactive; Activity (B16-F10 [11]): Active; Activity (Jurkat [12]): inactive; inhibition [13]: Dose-dependent-effect |
| COc1nc(OCc2cccc(-c3ccccc3)c2C)ccc1CNCCCCC(=O)NO | < 5.00 | – | < 5.00 | – | 5.01 | – | – | – | < 5.00 | < 5.00 | 7.00 | < 4.00 | pIC50 (Histone deacetylase 1): < 5.00 |
| COc1nc(-c2cccc(-c3ccccc3)c2C)ccc1CNCC(=O)NO | 5.07 | – | < 5.00 | – | < 5.00 | – | – | – | 5.05 | < 5.00 | 7.79 | 5.00 | – |
| Cc1c(COc2cc(OCc3cccc(C#N)c3)c(CNC(C)(C)C(=O)O)cc2Cl)cccc1-c1ccccc1 | – | 43.2% | – | 3.41% | – | ~50% | inactive | 4.99% | – | – | – | – | – |
| O=C(CCCCCCC(=O)Nc1ccccc1)NO | – | – | – | – | – | – | – | – | – | – | – | – | Activity (Jurkat [16]): Active; Activity (B16-F10 [17]): Active |
